Results published in patent US20050214394A1, “Hippophae rhamnoides compositions for cancer therapy” (priority 2003, published 2005).

Tests used:
COX-1 = target: T1, COX-1 (Ovis aries, UniProt P05979); experiment: COX-1 ELISA assay kit (PGHS-1 converting arachidonic acid to prostaglandins); conditions: commercial anti-inflammatory drug (positive control); concentration not given
T1 sequence (P05979 25-600): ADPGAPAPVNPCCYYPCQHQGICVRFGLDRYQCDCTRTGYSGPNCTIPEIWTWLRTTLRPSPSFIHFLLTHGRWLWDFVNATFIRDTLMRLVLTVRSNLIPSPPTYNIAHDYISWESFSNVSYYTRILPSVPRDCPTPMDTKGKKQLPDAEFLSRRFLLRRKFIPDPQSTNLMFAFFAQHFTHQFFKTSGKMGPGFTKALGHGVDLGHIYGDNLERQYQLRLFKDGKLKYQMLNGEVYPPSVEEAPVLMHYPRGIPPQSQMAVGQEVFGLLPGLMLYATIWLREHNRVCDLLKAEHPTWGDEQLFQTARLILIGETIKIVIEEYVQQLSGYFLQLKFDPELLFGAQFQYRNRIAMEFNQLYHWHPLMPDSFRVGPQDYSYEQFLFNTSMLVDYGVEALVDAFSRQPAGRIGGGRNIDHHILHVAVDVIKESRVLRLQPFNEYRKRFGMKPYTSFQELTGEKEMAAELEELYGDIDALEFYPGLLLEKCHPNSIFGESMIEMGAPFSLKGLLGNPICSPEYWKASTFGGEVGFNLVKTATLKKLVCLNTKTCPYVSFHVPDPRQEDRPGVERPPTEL

COX-2 = target: T2, COX-2 (Homo sapiens, UniProt P35354); experiment: COX-2 ELISA assay kit (PGHS-2 converting arachidonic acid to prostaglandins)
T2 sequence (P35354 18-604): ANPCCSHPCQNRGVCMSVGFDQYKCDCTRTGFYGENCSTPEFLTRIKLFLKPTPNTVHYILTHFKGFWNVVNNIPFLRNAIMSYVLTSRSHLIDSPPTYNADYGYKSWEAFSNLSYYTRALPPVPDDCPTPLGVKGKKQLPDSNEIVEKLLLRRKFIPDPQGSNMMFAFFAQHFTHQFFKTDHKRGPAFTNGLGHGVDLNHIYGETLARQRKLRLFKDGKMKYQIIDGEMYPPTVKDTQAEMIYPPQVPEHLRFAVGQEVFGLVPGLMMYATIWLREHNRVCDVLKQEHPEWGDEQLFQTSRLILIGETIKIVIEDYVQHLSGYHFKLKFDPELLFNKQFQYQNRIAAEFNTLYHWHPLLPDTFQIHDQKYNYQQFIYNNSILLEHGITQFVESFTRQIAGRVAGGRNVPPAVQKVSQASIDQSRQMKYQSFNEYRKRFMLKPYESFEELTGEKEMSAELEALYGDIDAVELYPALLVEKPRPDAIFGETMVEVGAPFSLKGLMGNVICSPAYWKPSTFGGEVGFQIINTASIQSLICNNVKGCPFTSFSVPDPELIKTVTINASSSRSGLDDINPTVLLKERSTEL
Method: The anti-inflammatory assays for COX-2 inhibitory activity were conducted using prostaglandin endoperoxide H synthase-1 and -2 isozymes (PGHS-1, and -2) based on their ability to convert arachidonic acid to prostaglandins (PGs).
Inhibition was measured by COX-1 and COX-2 ELISA assay kits (Cayman Chemical Co., Ann Arbor, Mich.).

CC(=O)Oc1ccccc1C(=O)O [aspirin]
inhibition of COX-1 (COX-1): 58% | inhibition of COX-2 (COX-2): 42%
